Reference: patent US8936806B2, “Periostin induces proliferation of cardiomyocytes and promotes cardiac regeneration” (Children's Medical Center Corporation, priority 2007, dated 2015)

Tests used:
[1] = tested on: primary adult rat ventricular cardiomyocytes; assay: DNA synthesis (BrdU uptake, immunofluorescence) in primary adult rat ventricular cardiomyocytes; assay type: cell-based
Description: Primary neonatal rat ventricular cardiomyocytes were isolated using the Neomyts kit (Cellutron, Highland Park, N.J.), seeded at a density of 10^5 cells/cm^2 onto gelatin-coated cover slips, stimulated for 3 days, and labeled with BrdU for the terminal 2 days. Primary adult ventricular cardiomyocytes were isolated from male (300 gm) Wistar rats (Charles River Laboratories) and maintained as described (Engel, F. B. et al. p38 MAP kinase inhibition enables proliferation of adult mammalian cardiomyocytes. Genes Dev 19, 1175-87 (2005)). Adult cardiomyocytes were stimulated daily for 9 days and labeled with 30 μM BrdU for the terminal 3 days. Cardiomyocytes were stimulated with periostin (500 ng/mL) and FGF (100 ng/mL). […] The vehicle used to dissolve factors or chemicals was added to unstimulated samples, which were then processed together with the test samples. DNA-synthesis was analyzed by visualization of BrdU uptake and cytokinesis was determined by detection of the cleavage furrow and the midbody with an antibody against aurora B kinase as described (Engel, F. B. et al. p38 MAP kinase inhibition enables proliferation of adult mammalian cardiomyocytes. Genes Dev 19, 1175-87 (2005)). Signals were visualized with secondary antibodies conjugated to Alexa 488, Alexa 546, Alexa 594, and Alexa 647 (Invitrogen). […] For image acquisition, the value for γ was set at 1 and the lookup table settings were linear. Primary adult rat ventricular cardiomyocytes were grown on gridded cover slips (Electron Microscopy Services, Ft. Washington, Pa.) and imaged in phase contrast at 10× magnification. Cardiomyocytes were transduced with an adenovirus leading to nuclear expression of histone2B-GFP (Shi, Q. & King, R. W. Nature 437, 1038-42 (2005)) under control of the chicken troponin T promoter ([…]. Am J Physiol Cell Physiol 286, […]-64 (2004)). Nuclei were visualized at 10× magnification with a mercury-arc lamp dimmed to 1.5% with a neutral density filter. […] Images of BrdU-positive cardiomyocytes were matched with the corresponding images from before stimulation. For quantification, differentiated cardiomyocytes were defined as striated rod-shaped structures with length/width ratio>1.5.

[2] = tested on: primary adult rat ventricular cardiomyocytes; assay: Cytokinesis (aurora B kinase) in primary adult rat ventricular cardiomyocytes; assay type: cell-based; settings: 9 days stimulation
Description: (§1) Primary neonatal rat ventricular cardiomyocytes were isolated using the Neomyts kit (Cellutron, Highland Park, N.J.), seeded at a density of 10^5 cells/cm^2 onto gelatin-coated cover slips, stimulated for 3 days, and labeled with BrdU for the terminal 2 days. Primary adult ventricular cardiomyocytes were isolated from male (300 gm) Wistar rats (Charles River Laboratories) and maintained as described (Engel, F. B. et al. p38 MAP kinase inhibition enables proliferation of adult mammalian cardiomyocytes. Genes Dev 19, 1175-87 (2005)). Adult cardiomyocytes were stimulated daily for 9 days and labeled with 30 μM BrdU for the terminal 3 days. Cardiomyocytes were stimulated with periostin (500 ng/mL) and FGF (100 ng/mL). Inhibiting antibodies were added at a concentration of 10 μg/mL, cRGD at 10 μM, U0126 at 10 μM, PD98059 at 1 μM, LY294002 at 10 μM, and Wortmannin at 0.1 μM 30 min prior to stimulation. The vehicle used to dissolve factors or chemicals was added to unstimulated samples, which were then processed together with the test samples.
(§2) DNA-synthesis was analyzed by visualization of BrdU uptake and cytokinesis was determined by detection of the cleavage furrow and the midbody with an antibody against aurora B kinase as described (Engel, F. B. et al. p38 MAP kinase inhibition enables proliferation of adult mammalian cardiomyocytes. Genes Dev 19, 1175-87 (2005)). Signals were visualized with secondary antibodies conjugated to Alexa 488, Alexa 546, Alexa 594, and Alexa 647 (Invitrogen). Nuclei were visualized with 4′,6′-diamidino-2-phenylindole (DAPI, Invitrogen). For image acquisition, the value for γ was set at 1 and the lookup table settings were linear.

[3] = tested on: primary neonatal rat ventricular cardiomyocytes; assay: DNA synthesis, mitosis and cytokinesis in primary neonatal rat ventricular cardiomyocytes; assay type: cell-based; settings: periostin plus FGF
Description: as §1, §2

[4] = tested on: atrial natriuretic factor (ANF); assay: Transcription of atrial natriuretic factor by RT-PCR in neonatal cardiomyocytes; assay type: cell-based, rat; settings: 72 hr stimulation
Description: RNA was prepared using Trizol reagent (Invitrogen) from neonatal rat ventricular cardiomyocytes after 72 hr of stimulation. Complementary DNA was synthesized from 2 μg RNA with the SuperScriptIII kit (Invitrogen) using oligo-dT primers. One μL cDNA was used as template for 20 μL PCR-reactions (95° C. for 2 min, 30 cycles of 95° C. for 2 min, 55° C. for 2 min, 72° C. for 5 min, followed by 72° C. for 10 min). Oligonucleotide primers used for detection of ANF were F: 5′-[…]-3′ (Seq ID No. 2), R: 5′-[…]-3′ (Seq ID No. 3), β-actin were F: 5′-[…]-3′ (Seq ID No. 4), R: 5′-[…]-3′ (Seq ID No. 5), […] were F: 5′-[…]-3′ (Seq ID No. 6), R: 5′-[…]-3′ (Seq ID No. 7); SMA were F: 5′-[…]-3′ (Seq ID No. 8), R: 5′-[…]-3′ (Seq ID No. 9); SERCA2 were F: 5′-[…]-3′ (Seq ID No. 10), R: 5′-[…]-3′ (Seq ID No. 11), and for GAPDH: 5′-[…]-3′ (Seq ID No. 12), R: 5′-[…]-3′ (Seq ID No. 13).

[5] = tested on: adult ventricular cardiomyocytes; assay: Transcription of fetal gene program (RT-PCR) in adult ventricular cardiomyocytes; assay type: cell-based, rat
[6] = tested on: differentiated cardiomyocytes; assay: Hypertrophy by [3H]leucine uptake; assay type: cell-based, rat; settings: phenylephrine 10 mM [sic]; all time points tested
Description: Induction of the fetal gene program is accompanied by increased protein synthesis leading to cardiomyocyte hypertrophy. We assessed cardiomyocyte hypertrophy by measuring uptake of [^3H]leucine.

Q: How did the “cardiomyocyte DNA synthesis” value ([1]; 9 days stimulation (periostin 500 ng/mL, FGF 100 ng/mL), BrdU terminal 3 days) turn out when “FGF: FGF1 provided by R&D Systems; known stimulus of cardiomyocyte DNA synthesis” was run?
A: The value was 1.3±0.6%.

Q: And the “effect on periostin-induced cardiomyocyte DNA synthesis when added” value ([1]; FGF 100 ng/ml, SB203580 5 mM or 10 mM as printed)?
A: Its value is “increased”.

Q: And the “cytokinesis, of all differentiated cardiomyocytes” value [2]?
A: Its value is 0.3±0.1%.

Q: What about the “effect of co-stimulation with periostin on DNA synthesis” value [3] of the same molecule?
A: The value was “additive effect”.

Q: What about the “transcription of atrial natriuretic factor (ANF)” value [4] of the same molecule?
A: Its value is “induced”.

Q: How did the “transcription of atrial natriuretic factor (ANF)” value [4] turn out when `CNC[C@H](O)c1cccc(O)c1` [phenylephrine, reference compound] was run?
A: The value was “induced”.

Q: And the “transcription of SERCA2” value [5]?
A: The value was “slightly reduced”.

Q: And the “transcription of β-MHC, SMA and ANF” value [5]?
A: Its value is “increased transcription”.

Q: What about the “[3H]leucine uptake (hypertrophy)” value [6] of the same molecule?
A: Its value is “induced”.
